Columns and labels:
[1] = system: ctDNA/RNA from torula yeast/BSA; experiment: Fluorescence increments / binding isotherm with ctDNA, RNA and BSA; conditions: dye 5 μM
Protocol: FIG. 8 illustrates increments of fluorescence of TPE-C2N^+ (8), N+C2-TPE-C2N^+ (9), TPE-C4N^+ (10), N+C4-TPE-C4N^+ (11) when binding with 10 μg/ml ctDNA/10 μg/ml RNA diethylaminoethanol (DEAE) salt from torula yeast/10 μg/ml RNA from torula yeast in buffer solution pH=7. Concentration of dyes: 5 μM; excitation wavelength: 350 nm. The four cationic TPE derivatives display larger FL enhancement in the presence of DNA than that of RNA.
FIG. 9 illustrates the binding isotherm of N+C2-TPE-C2N^+ (5 μM) to ctDNA/RNA from torula yeast/BSA (plot of the fluorescence intensity at 470 nm for ctDNA/RNA, and at 467 nm for BSA) in aqueous phosphate buffer (pH=7.0).

G-quadruplex of G1 = experiment: Isothermal titration calorimetry (ITC); format: binding, human
Protocol: It is clear that TTAPE is highly affinitive to K^+-containing G-quadruplex but not its Na^+ cousin. Isothermal titration calorimetry (ITC) measurements are performed, in an effort to understand the thermodynamic basis for the binding affinity difference. ITC is a sensitive technique for the studies of bimolecular processes and can provide direct information about binding affinities and associated thermodynamic parameters. A calorimetric titration experiment was performed at 25.00±0.01° C. on a MicroCal VP-ITC apparatus. G1 solutions for the ITC experiments were prepared in all-potassium (K-Tris: 5 mM Tris-HCl and 150 mM KCl) or all-sodium (Na-Tris: 5 mM Tris-HCl and 150 mM NaCl) buffer at pH 7.50, as required. The buffer solution of G1 was heated to 85° C. and cooled slowly to ensure the folding of the DNA into G-quadruplex structure. For a typical titration, a series of 10 μL aliquots of TTAPE solution were injected into the G1/M^+ solution at a 240 s interval. The heat for each injection was determined by the integration of the peak area in the thermogram with respect to time. Blank titration was conducted by injecting TTAPE into the sample cell containing only buffer under the same condition. The interaction heat was corrected by subtracting the blank heat from that for the TTAPE/G1 titration. The kb values were derived by fitting the isotherm curves with Origin 5.0 software.

H21 = experiment: Job plots for the binding of TTAPE to H21
Protocol: The sum of TTAPE and DNA concentrations was kept at 10 μM. Fluorescent intensities for the bound TTAPE at 470 nm are normalized to the maximum increase in each case. The y-axis represents the difference in PL intensity for mole fraction of ligand (χL) in DNA. Intercept mole fraction values were determined from least-squares fits to the linear data portions, giving yjni values of 0.50 (1:1 stoichiometry) for H21 in K-Tris, 0.67 […] for H21 in Na-Tris, and 0.75 […] for H21 in Tris-HCl, respectively.

HG21 DNA = experiment: CD spectra: G-quadruplex induction by TPE derivatives; format: biochemical; conditions: 9 μM DNA, 4.5 μM TPE derivative, Tris-HCl pH 7.5, 25 °C
Protocol: [TPE]=4.5 μM; [HG21]=9 μM and [K^+]=0.5 M.
CD spectral profiles of 9 μM DNA in 5 mM Tris-HCl buffer solutions (pH 7.5) incubated under 25° C. with four different TPE derivatives at 4.5 μM or with 0.5M K^+ ions are studied (FIG. 77). TPE derivatives 1-4 are TTAPE (Example 6), TPE-2 (chemical structure is not shown herein), TPE-3 (chemical structure is not shown herein) and TPE-C2N+ (Example 3), respectively. […] On the other hand, DNA incubated with TTAPE or the known quadruplex inducer; K^+ ions have very similar spectral profiles, while the ellipticities of DNA/TTAPE are somehow weaker than DNA/K^+.

Solubility = format: physicochemical

CC[N+](CC)(CC)CCOc1ccc(C(=C(c2ccc(OCC[N+](CC)(CC)CC)cc2)c2ccc(OCC[N+](CC)(CC)CC)cc2)c2ccc(OCC[N+](CC)(CC)CC)cc2)cc1.[Br-].[Br-].[Br-].[Br-] [TTAPE, 1,1,2,2-tetrakis[4-(2-triethylammonioethoxy)phenyl]ethene tetrabromide]
Variety of FL in presence of DNA and RNA compared with TPE-C2N+ and TPE-C4N+ ([1]; 10 μg/ml ctDNA or RNA): much larger variety of FL | Relative affinity to DNA, RNA and proteins ([1]; aqueous phosphate buffer pH 7.0): larger affinity to DNA than to RNA and proteins | Gibbs energy (ΔG°) (G-quadruplex of G1; G1/K+ buffer, 25 °C): -7.3 kcal/mol | Binding constant (G-quadruplex of G1; Na+ titration (Na-Tris)): too small to be determined accurately | Job plot intercept mole fraction (H21; H21 in K-Tris buffer pH 7.50): 0.50 | Job plot intercept mole fraction (H21; H21 in Na-Tris buffer pH 7.50): 0.67 | Job plot intercept mole fraction (H21; H21 in Tris-HCl buffer pH 7.50): 0.75 | G-quadruplex induction (CD spectral profile) (HG21 DNA): acts as an internal quadruplex inducer under 25 °C | Solubility in water (Solubility): completely soluble in water
